We go through 16 compounds from US11986532B2 (Arvinas Operations, Inc., priority 2021, dated 2024).

The assay addresses T1, BCL6 (Homo sapiens, UniProt P41182).
T1 construct: endogenous in cells; host or cells: T47D breast cancer epithelial cells
In words: Immunofluorescence protocol for high content imaging of BCL6 (degradation) in T47D cells, 3 days compound treatment. Type of assay: cell-based. The note with it: for Dmax: read-out: Mean Dmax (%)** category; for DC50: read-out: Mean DC50 (nM)* category. The essentials:
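High content immunofluorescence imaging (10×, 4 fields/well) of BCL6 using rabbit primary antibody, Alexa-488 secondary, cell mask and Hoechst nuclear stain after PFA fixation. Before staining, T47D cells (7K/well) were exposed for 3 days at 37° C to 3-fold serial dilutions of compound, top final concentration 0.1 or 1 μM.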

Where [1] appears, read: T47D cells, 3 days compound treatment.

Read-outs that look alike come from different tables or passages of the source.

As a reminder, the Dmax is the largest share of the target that was removed. As a reminder, the DC50 is the midpoint of the concentration-degradation curve. As to `CNC(=O)COc1cc2cc(Nc3nc(N4CCC(O[C@H]5C[C@H](N6[C@@H](C)CN(c7ccc8c(c7)CN(C7CCC(=O)NC7=O)C8=O)C[C@@H]6C)C5)CC4)ncc3Cl)ccc2n(C(C)C)c1=O` (stereo partly drawn) [Compound 254, 2-({6-[(5-chloro-2-{4-[(1r,3r)-3-[(2S,6S)-4-[2-(2,6-dioxopiperidin-3-yl)-1-oxo-2,3-dihydro-1H-isoindol-5-yl]-2,6-dimethylpiperazin-1-yl]cyclobutoxy]piperidin-1-yl}pyrimidin-4-yl)amino]-2-oxo-1-(propan-2-yl)-1,2-dihydroquinolin-3-yl}oxy)-N-methylacetamide], the 50% degradation concentration (DC50) is less than 10 nM. Under “T47D”, the Dmax is not below 70%.
On the same counts, the results for `CNC(=O)COc1cc2cc(Nc3nc(N4CCC(CN5CCC6(CC5)CCN6c5cccc6c5C(=O)N(C5CCC(=O)NC5=O)C6=O)CC4)ncc3Cl)ccc2n(C(C)C)c1=O` (centres unmarked) [Compound 333, 2-{[6-({5-chloro-2-[4-({1-[2-(2,6-dioxopiperidin-3-yl)-1,3-dioxo-2,3-dihydro-1H-isoindol-4-yl]-1,7-diazaspiro[3.5]nonan-7-yl}methyl)piperidin-1-yl]pyrimidin-4-yl}amino)-2-oxo-1-(propan-2-yl)-1,2-dihydroquinolin-3-yl]oxy}-N-methylacetamide] are less than 10 nM and not below 70%.
With `CNC(=O)COc1cc2cc(Nc3nc(N4CCC(O[C@H]5C[C@H](N6CCN(c7ccc8c(c7C)C(=O)N(C7CCC(=O)NC7=O)C8=O)C[C@@H]6C)C5)CC4)ncc3Cl)ccc2n(C(C)C)c1=O` (stereo partly drawn) [Compound 194, 2-({6-[(5-chloro-2-{4-[(1r,3r)-3-[(2S)-4-[2-(2,6-dioxopiperidin-3-yl)-4-methyl-1,3-dioxo-2,3-dihydro-1H-isoindol-5-yl]-2-methylpiperazin-1-yl]cyclobutoxy]piperidin-1-yl}pyrimidin-4-yl)amino]-2-oxo-1-(propan-2-yl)-1,2-dihydroquinolin-3-yl}oxy)-N-methylacetamide], under setting [1], the DC50 is less than 10 nM and the Dmax is not below 70%.
In the case of `CNC(=O)COc1cc2cc(Nc3nc(N4CCOC5(CN(CCC6CCN(c7cccc8c7C(=O)N(C7CCC(=O)NC7=O)C8=O)CC6)C5)C4)ncc3Cl)ccc2n(C(C)C)c1=O` (centres unmarked) [Compound 144, 2-{[6-({5-chloro-2-[2-(2-{1-[2-(2,6-dioxopiperidin-3-yl)-1,3-dioxo-2,3-dihydro-1H-isoindol-4-yl]piperidin-4-yl}ethyl)-5-oxa-2,8-diazaspiro[3.5]nonan-8-yl]pyrimidin-4-yl}amino)-2-oxo-1-(propan-2-yl)-1,2-dihydroquinolin-3-yl]oxy}-N-methylacetamide], under setting [1], the DC50 is not below 100 nM and the Dmax was not below 70%.
With `CNC(=O)COc1cc2cc(Nc3nc(N4CCC(CN5CCN(c6ccc7c(c6)C(=O)N(C6CCC(=O)NC6=O)C7=O)CC5)CC4)ncc3Cl)ccc2n(C(C)C)c1=O` (centres unmarked) [Compound 404, 2-{[6-({5-chloro-2-[4-({4-[2-(2,6-dioxopiperidin-3-yl)-1,3-dioxo-2,3-dihydro-1H-isoindol-5-yl]piperazin-1-yl}methyl)piperidin-1-yl]pyrimidin-4-yl}amino)-2-oxo-1-(propan-2-yl)-1,2-dihydroquinolin-3-yl]oxy}-N-methylacetamide], the DC50 lay in the range of 10 to 50 nM. Besides, the Dmax (T47D) is 50 to 70%.
For the compound `CNC(=O)COc1cc2cc(Nc3nc(N4CCC(CN5CC6(CCN(c7ccc8c(c7F)CN(C7CCC(=O)NC7=O)C8=O)CC6)C5)CC4)ncc3Cl)ccc2n(C(C)C)c1=O` (centres unmarked) [Compound 87, 2-{[6-({5-chloro-2-[4-({7-[2-(2,6-dioxopiperidin-3-yl)-4-fluoro-1-oxo-2,3-dihydro-1H-isoindol-5-yl]-2,7-diazaspiro[3.5]nonan-2-yl}methyl)piperidin-1-yl]pyrimidin-4-yl}amino)-2-oxo-1-(propan-2-yl)-1,2-dihydroquinolin-3-yl]oxy}-N-methylacetamide], under setting [1], the DC50 was less than 10 nM and the Dmax was 50 to 70%.
Consider `CNC(=O)COc1cc2cc(Nc3nc(N4CCC(O[C@H]5C[C@H](N6CCN(c7cc8c(cc7Cl)C(=O)N([C@H]7CCC(=O)NC7=O)C8)[C@H](C)C6)C5)CC4)ncc3Cl)ccc2n(C(C)C)c1=O` [Compound 269, 2-({6-[(5-chloro-2-{4-[(1r,3r)-3-[(3R)-4-{6-chloro-2-[(3S)-2,6-dioxopiperidin-3-yl]-1-oxo-2,3-dihydro-1H-isoindol-5-yl}-3-methylpiperazin-1-yl]cyclobutoxy]piperidin-1-yl}pyrimidin-4-yl)amino]-2-oxo-1-(propan-2-yl)-1,2-dihydroquinolin-3-yl}oxy)-N-methylacetamide], for which the DC50 is less than 10 nM. For the same compound, the Dmax (T47D) is not below 70%.
With `CNC(=O)COc1cc2cc(Nc3nc(N4CCC(O[C@H]5CC[C@H](N(C)C6CN(c7cccc8c7C(=O)N(C7CCC(=O)NC7=O)C8=O)C6)CC5)CC4)ncc3Cl)ccc2n(C(C)C)c1=O` (some centres unmarked) [Compound 108, 2-[(6-{[5-chloro-2-(4-{[(1r,4r)-4-({1-[2-(2,6-dioxopiperidin-3-yl)-1,3-dioxo-2,3-dihydro-1H-isoindol-4-yl]azetidin-3-yl}(methyl)amino)cyclohexyl]oxy}piperidin-1-yl)pyrimidin-4-yl]amino}-2-oxo-1-(propan-2-yl)-1,2-dihydroquinolin-3-yl)oxy]-N-methylacetamide], under setting [1], the DC50 is less than 10 nM and the Dmax lay within 50 to 70%.
Regarding `[2H]C([2H])([2H])Oc1c(N2CC3(CCN(CC4CCN(c5ncc(Cl)c(Nc6ccc7c(c6)cc(OCC(=O)NC)c(=O)n7C(C)C)n5)CC4)CC3)C2(C)C)ccc2c1CN(C1CCC(=O)NC1=O)C2=O` (centres unmarked) [Compound 227, 2-{[6-({5-chloro-2-[4-({2-[2-(2,6-dioxopiperidin-3-yl)-4-(^2H3)methoxy-1-oxo-2,3-dihydro-1H-isoindol-5-yl]-1,1-dimethyl-2,7-diazaspiro[3.5]nonan-7-yl}methyl)piperidin-1-yl]pyrimidin-4-yl}amino)-2-oxo-1-(propan-2-yl)-1,2-dihydroquinolin-3-yl]oxy}-N-methylacetamide], the DC50 was less than 10 nM. Also, the Dmax (T47D) fell in the range of 50 to 70%.
On the same counts, the results for `CNC(=O)COc1cc2cc(Nc3nc(N4CCC(N5CCC56CN(C5CCN(c7ccc8c(c7)C(=O)N(C7CCC(=O)NC7=O)C8=O)C5)C6)CC4)ncc3Cl)ccc2n(C(C)C)c1=O` (centres unmarked) [Compound 221, 2-{[6-({5-chloro-2-[4-(6-{1-[2-(2,6-dioxopiperidin-3-yl)-1,3-dioxo-2,3-dihydro-1H-isoindol-5-yl]pyrrolidin-3-yl}-1,6-diazaspiro[3.3]heptan-1-yl)piperidin-1-yl]pyrimidin-4-yl}amino)-2-oxo-1-(propan-2-yl)-1,2-dihydroquinolin-3-yl]oxy}-N-methylacetamide] are less than 10 nM and 50 to 70%.
For `CNC(=O)COc1cc2cc(Nc3nc(N4CCC(O[C@H]5C[C@H](N6CCC(c7ccc8c(c7)C(=O)N(C7CCC(=O)NC7=O)C8=O)C(C)(C)C6)C5)CC4)ncc3Cl)ccc2n(C(C)C)c1=O` (some centres unmarked) [Compound 399, 2-({6-[(5-chloro-2-{4-[(1r,3r)-3-{4-[2-(2,6-dioxopiperidin-3-yl)-1,3-dioxo-2,3-dihydro-1H-isoindol-5-yl]-3,3-dimethylpiperidin-1-yl}cyclobutoxy]piperidin-1-yl}pyrimidin-4-yl)amino]-2-oxo-1-(propan-2-yl)-1,2-dihydroquinolin-3-yl}oxy)-N-methylacetamide], in that order: 10 to 50 nM and not below 70%.
Consider `CNC(=O)COc1cc2cc(Nc3nc(N4CCC(O[C@H]5C[C@H](N6CCN(c7ccc8c(c7F)CN(C7CCC(=O)NC7=O)C8=O)C[C@H]6C)C5)CC4)ncc3Cl)ccc2n(C(C)C)c1=O` (some centres unmarked) [Compound 182], for which, under setting [1], the DC50 was less than 10 nM and the Dmax was not below 70%.
On the same counts, the results for `CNC(=O)COc1cc2cc(Nc3nc(N4CCC(O[C@H]5C[C@H](N6CCN(c7ccc8c(n7)CN(C7CCC(=O)NC7=O)C8=O)[C@H](C)C6)C5)CC4)ncc3Cl)ccc2n(C(C)C)c1=O` (stereo partly drawn) [Compound 198, 2-({6-[(5-chloro-2-{4-[(1r,3r)-3-[(3R)-4-[6-(2,6-dioxopiperidin-3-yl)-5-oxo-5H,6H,7H-pyrrolo[3,4-b]pyridin-2-yl]-3-methylpiperazin-1-yl]cyclobutoxy]piperidin-1-yl}pyrimidin-4-yl)amino]-2-oxo-1-(propan-2-yl)-1,2-dihydroquinolin-3-yl}oxy)-N-methylacetamide] are less than 10 nM and not below 70%.
Regarding `CNC(=O)COc1cc2cc(Nc3nc(N4CCC(O[C@H]5C[C@H](N6CCN(c7ccc8c(c7C)CN(C7CCC(=O)NC7=O)C8=O)CC6)C5)CC4)ncc3Cl)ccc2n(C(C)C)c1=O` (some centres unmarked) [Compound 416, 2-({6-[(5-chloro-2-{4-[(1r,3r)-3-{4-[2-(2,6-dioxopiperidin-3-yl)-4-methyl-1-oxo-2,3-dihydro-1H-isoindol-5-yl]piperazin-1-yl}cyclobutoxy]piperidin-1-yl}pyrimidin-4-yl)amino]-2-oxo-1-(propan-2-yl)-1,2-dihydroquinolin-3-yl}oxy)-N-methylacetamide], the DC50 is less than 10 nM. Moreover, the Dmax (T47D) was not below 70%.
For `CNC(=O)COc1cc2cc(Nc3nc(N4CCC(O[C@H]5C[C@H](N6CCN(c7ccc8c(c7Cl)CN([C@H]7CCC(=O)NC7=O)C8=O)[C@H](C)C6)C5)CC4)ncc3Cl)ccc2n(C(C)C)c1=O` [Compound 267, 2-({6-[(5-chloro-2-{4-[(1r,3r)-3-[(3R)-4-{4-chloro-2-[(3S)-2,6-dioxopiperidin-3-yl]-1-oxo-3H-isoindol-5-yl}-3-methylpiperazin-1-yl]cyclobutoxy]piperidin-1-yl}pyrimidin-4-yl)amino]-1-isopropyl-2-oxoquinolin-3-yl}oxy)-N-methylacetamide], the DC50 is less than 10 nM. Also, the Dmax (T47D) fell in the range of 50 to 70%.
Turning to `CNC(=O)COc1cc2cc(Nc3nc(N4CCC(O[C@H]5C[C@H](N6CC[C@H](c7ccc8c(c7)C(=O)N(C7CCC(=O)NC7=O)C8)[C@H](F)C6)C5)CC4)ncc3Cl)ccc2n(C(C)C)c1=O` (mixture of isomers) [Compound 132], under setting [1], the DC50 was less than 10 nM and the maximal degradation (Dmax) was 50 to 70%.
